Results: patent US20150148235A1, “HERBICIDE-RESISTANT SUNFLOWER PLANTS WITH MULTIPLE HERBICIDE RESISTANT ALLELES OF AHASL1 AND METHODS OF USE” (NIDERA S.A., priority 2013, published 2015)

System: sunflower lines and hybrids carrying A122T and/or A205V AHASL1 alleles
Assay: Greenhouse whole-plant response to imazapyr doses (height, Phytotoxicity Index, dry biomass), Example 2
Type: in vivo, Helianthus annuus
Details: 14 DAT
Procedure: Seeds were sown in Petri dishes and, after germination, plantlets were transplanted to pots of 10 cm of diameter in a potting media consisting of equal parts of vermiculite, soil and sand. Plants were grown in a greenhouse under natural light conditions supplemented with 400 W sodium halide lamps to provide a 16 hr daylength. Day/night temperatures were 25 and 20° C., respectively. At the V2-V4 stage (Schneiter & Miller (1981) Crop Sci. 21:901-903) 10 plants of each genotype were randomly assigned to each treatment consisting of eight imazapyr doses (0, 40, 80, 160, 240, 320, 400 and 480 g ai/ha, corresponding to untreated, 0.5×, 1×, 2×, 3×, 4×, 5× and 6×, respectively), and a zero-time biomass determination. Experiment was arranged as a randomized block design with a full factorial (sunflower line×treatment) arrangement of treatments and 10 replications.
On the day of herbicide application ten plants of each genotype were cut at the cotyledonal node and dried at 60° C. for 48 hrs for zero-time dried weight determination.
The remaining plants were maintained for 14 days after imazapyr treatment (DAT) and their height, Phytotoxicity Index (PI) and above ground dry biomass were determined Height was determined as the distance between the cotyledonal node and the apex of each plant. Above ground biomass data from each line were converted to biomass accumulation after application by subtracting the appropriate average zero-time biomass from each sample. Dry biomass data were converted to percentages of the untreated control plants within each line to allow direct comparisons between groups.

[1] = H1 (A205V hybrid), 0.5x=40 g ai/ha
[2] = H2 (A122T hybrid), 0.5x=40 g ai/ha
[3] = H2 (A122T hybrid), 5x=400 g ai/ha
[4] = H3 (A122T/A205V hybrid), 1x=80 g ai/ha
[5] = H3 (A122T/A205V hybrid), 4x=320 g ai/ha
[6] = H3 (A122T/A205V hybrid), 6x=480 g ai/ha
[7] = H4 (A122T/A205V hybrid), 0.5x=40 g ai/ha
[8] = H4 (A122T/A205V hybrid), 2x=160 g ai/ha
[9] = H4 (A122T/A205V hybrid), 3x=240 g ai/ha

CC(C)C1(C)N=C(c2ncccc2C(=O)O)NC1=O (stereo not drawn) [imazapyr]
Difference between A205V vs A205V/A122T, Phytotoxicity Index (0.5x=40 g ai/ha): −0.50 | Difference between A205V vs A205V/A122T, biomass accumulation (0.5x=40 g ai/ha): −4.33 % of untreated | Difference between A205V vs A205V/A122T, plant height (0.5x=40 g ai/ha): 0.21 % of untreated | Difference between A1222T vs A205V/A122T, plant height (0.5x=40 g ai/ha): 0.49 % of untreated | ifference between A1222T vs A205V/A122T, Phytotoxicity Index (0.5x=40 g ai/ha): −0.21 | ifference between A1222T vs A205V/A122T, biomass accumulation (0.5x=40 g ai/ha): −0.76 % of untreated | Difference between A205V vs A205V/A122T, Phytotoxicity Index (1x=80 g ai/ha): −0.50 | Difference between A205V vs A205V/A122T, biomass accumulation (1x=80 g ai/ha): −13.45 % of untreated | Difference between A205V vs A205V/A122T, plant height (1x=80 g ai/ha): 0.89 % of untreated | Difference between A1222T vs A205V/A122T, plant height (1x=80 g ai/ha): 1.21 % of untreated | ifference between A1222T vs A205V/A122T, Phytotoxicity Index (1x=80 g ai/ha): −0.21 | ifference between A1222T vs A205V/A122T, biomass accumulation (1x=80 g ai/ha): −2.17 % of untreated | Difference between A205V vs A205V/A122T, Phytotoxicity Index (2x=160 g ai/ha): 1.66 | Difference between A205V vs A205V/A122T, biomass accumulation (2x=160 g ai/ha): −30.47 % of untreated | Difference between A205V vs A205V/A122T, plant height (2x=160 g ai/ha): −24.63 % of untreated | Difference between A1222T vs A205V/A122T, plant height (2x=160 g ai/ha): −0.32 % of untreated | ifference between A1222T vs A205V/A122T, Phytotoxicity Index (2x=160 g ai/ha): −0.20 | ifference between A1222T vs A205V/A122T, biomass accumulation (2x=160 g ai/ha): −1.07 % of untreated | Difference between A205V vs A205V/A122T, Phytotoxicity Index (3x=240 g ai/ha): 4.65 | Difference between A205V vs A205V/A122T, biomass accumulation (3x=240 g ai/ha): −41.42 % of untreated | Difference between A205V vs A205V/A122T, plant height (3x=240 g ai/ha): −46.79 % of untreated | Difference between A1222T vs A205V/A122T, plant height (3x=240 g ai/ha): −1.22 % of untreated | ifference between A1222T vs A205V/A122T, Phytotoxicity Index (3x=240 g ai/ha): −0.17 | ifference between A1222T vs A205V/A122T, biomass accumulation (3x=240 g ai/ha): 0.55 % of untreated | Difference between A205V vs A205V/A122T, Phytotoxicity Index (4x=320 g ai/ha): 6.92 | Difference between A205V vs A205V/A122T, biomass accumulation (4x=320 g ai/ha): −52.87 % of untreated | Difference between A205V vs A205V/A122T, plant height (4x=320 g ai/ha): −62.01 % of untreated | Difference between A1222T vs A205V/A122T, plant height (4x=320 g ai/ha): 1.15 % of untreated | ifference between A1222T vs A205V/A122T, Phytotoxicity Index (4x=320 g ai/ha): 0.00 | ifference between A1222T vs A205V/A122T, biomass accumulation (4x=320 g ai/ha): −0.73 % of untreated | Difference between A205V vs A205V/A122T, Phytotoxicity Index (5x=400 g ai/ha): 7.59 | Difference between A205V vs A205V/A122T, biomass accumulation (5x=400 g ai/ha): −46.69 % of untreated | Difference between A205V vs A205V/A122T, plant height (5x=400 g ai/ha): −48.59 % of untreated | Difference between A1222T vs A205V/A122T, plant height (5x=400 g ai/ha): 9.12 % of untreated | ifference between A1222T vs A205V/A122T, Phytotoxicity Index (5x=400 g ai/ha): 0.21 | ifference between A1222T vs A205V/A122T, biomass accumulation (5x=400 g ai/ha): −1.14 % of untreated | Difference between A205V vs A205V/A122T, Phytotoxicity Index (6x=480 g ai/ha): 7.19 | Difference between A205V vs A205V/A122T, biomass accumulation (6x=480 g ai/ha): −41.41 % of untreated | Difference between A205V vs A205V/A122T, plant height (6x=480 g ai/ha): −31.39 % of untreated | Difference between A1222T vs A205V/A122T, plant height (6x=480 g ai/ha): 19.49 % of untreated | ifference between A1222T vs A205V/A122T, Phytotoxicity Index (6x=480 g ai/ha): 0.17 | ifference between A1222T vs A205V/A122T, biomass accumulation (6x=480 g ai/ha): 2.41 % of untreated | Height reduction (A122T homozygous lines, 0.5x): 0.1% | Biomass weight reduction (A122T homozygous, higher dose (6x)): 25% | Height versus untreated controls (A205V homozygous lines and hybrid, 0.5x or 1x): did not differ from the untreated controls | Phytotoxicity Index (scale 0-9) [1]: 0 | biomass accumulation (dry) [1]: 95.0 % of untreated | Phytotoxicity Index (scale 0-9) (H1 (A205V hybrid), 1x=80 g ai/ha): 0 | Phytotoxicity Index (scale 0-9) (H1 (A205V hybrid), 2x=160 g ai/ha): 1.8 | Phytotoxicity Index (scale 0-9) (H1 (A205V hybrid), 3x=240 g ai/ha): 6.4 | Phytotoxicity Index (scale 0-9) (H1 (A205V hybrid), 4x=320 g ai/ha): 8.0 | Phytotoxicity Index (scale 0-9) (H1 (A205V hybrid), 5x=400 g ai/ha): 8.9 | Phytotoxicity Index (scale 0-9) (H1 (A205V hybrid), 6x=480 g ai/ha): 9.0 | Phytotoxicity Index (scale 0-9) [2]: 0.5 | biomass accumulation (dry) [2]: 100 % of untreated | Phytotoxicity Index (scale 0-9) (H2 (A122T hybrid), 1x=80 g ai/ha): 0.5 | Phytotoxicity Index (scale 0-9) (H2 (A122T hybrid), 2x=160 g ai/ha): 0.5 | Phytotoxicity Index (scale 0-9) (H2 (A122T hybrid), 3x=240 g ai/ha): 0.5 | Phytotoxicity Index (scale 0-9) (H2 (A122T hybrid), 4x=320 g ai/ha): 0.5 | Phytotoxicity Index (scale 0-9) [3]: 0.5 | plant height [3]: 87.0 % of untreated | Phytotoxicity Index (scale 0-9) (H2 (A122T hybrid), 6x=480 g ai/ha): 0.5 | Phytotoxicity Index (scale 0-9) (H3 (A122T/A205V hybrid), 0.5x=40 g ai/ha): 0.5 | Phytotoxicity Index (scale 0-9) [4]: 0.5 | biomass accumulation (dry) [4]: 100.0 % of untreated | plant height [4]: 97.0 % of untreated | Phytotoxicity Index (scale 0-9) (H3 (A122T/A205V hybrid), 2x=160 g ai/ha): 0.5 | Phytotoxicity Index (scale 0-9) (H3 (A122T/A205V hybrid), 3x=240 g ai/ha): 0.5 | Phytotoxicity Index (scale 0-9) [5]: 0.5 | plant height [5]: 92.0 % of untreated | Phytotoxicity Index (scale 0-9) (H3 (A122T/A205V hybrid), 5x=400 g ai/ha): 0.6 | Phytotoxicity Index (scale 0-9) [6]: 1.0 | plant height [6]: 58.0 % of untreated | Phytotoxicity Index (scale 0-9) [7]: 0.0 | plant height [7]: 100.0 % of untreated | Phytotoxicity Index (scale 0-9) (H4 (A122T/A205V hybrid), 1x=80 g ai/ha): 0.0 | Phytotoxicity Index (scale 0-9) [8]: 0.0 | plant height [8]: 100.0 % of untreated | Phytotoxicity Index (scale 0-9) [9]: 0.0 | plant height [9]: 100.0 % of untreated | Phytotoxicity Index (scale 0-9) (H4 (A122T/A205V hybrid), 4x=320 g ai/ha): 0.0
